Measurements as given in PubChem BioAssay (NCI).
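GI50 = concentration required for 50% inhibition of growth. TGI: concentration producing complete growth inhibition.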

Tests used:
Test in all cases: inhibition of tumour cell growth, NCI panel, 384-well format
[1] = tested on: 786-0 renal
[2] = tested on: A498 renal
[3] = tested on: A549 NSCLC
[4] = tested on: ACHN renal
[5] = tested on: BT-549 breast
[6] = tested on: CAKI-1 renal
[7] = tested on: CCRF-CEM leukemia
[8] = tested on: COLO 205 colon
[9] = tested on: DU-145 prostate
[10] = tested on: EKVX NSCLC
[11] = tested on: HCC-2998 colon
[12] = tested on: HCT-15 colon
[13] = tested on: HL-60(TB) leukemia
[14] = tested on: HOP-62 NSCLC
[15] = tested on: HOP-92 NSCLC
[16] = tested on: HS 578T breast
[17] = tested on: HT29 colon
[18] = tested on: IGROV1 ovarian
[19] = tested on: K-562 leukemia
[20] = tested on: KM12 colon
[21] = tested on: LOX IMVI melanoma
[22] = tested on: M14 melanoma
[23] = tested on: MALME-3M melanoma
[24] = tested on: MCF7 breast
[25] = tested on: MDA-MB-231 breast
[26] = tested on: MDA-MB-435 melanoma
[27] = tested on: MDA-MB-468 breast
[28] = tested on: MOLT-4 leukemia
[29] = tested on: NCI-H226 lung
[30] = tested on: NCI-H23 lung
[31] = tested on: NCI-H322M lung
[32] = tested on: NCI-H460 NSCLC
[33] = tested on: NCI-H522 lung
[34] = tested on: NCI/ADR-RES ovarian
[35] = tested on: OVCAR-3 ovarian
[36] = tested on: OVCAR-4 ovarian
[37] = tested on: OVCAR-5 ovarian
[38] = tested on: OVCAR-8 ovarian
[39] = tested on: PC-3 prostate
[40] = tested on: RPMI-8226 leukemia
[41] = tested on: RXF 393 renal
[42] = tested on: SF-268 CNS
[43] = tested on: SF-295 CNS
[44] = tested on: SF-539 CNS
[45] = tested on: SK-MEL-28 melanoma
[46] = tested on: SK-MEL-5 melanoma
[47] = tested on: SK-OV-3 ovarian
[48] = tested on: SN12C renal
[49] = tested on: SNB-19 CNS
[50] = tested on: SNB-75 CNS
[51] = tested on: SR leukemia
[52] = tested on: SW-620 colon
[53] = tested on: T-47D breast
[54] = tested on: TK-10 renal
[55] = tested on: UACC-257 melanoma
[56] = tested on: UACC-62 melanoma
[57] = tested on: UO-31 renal

CCc1cc2ncc(CN3CCN(c4ccc(C(=O)NC)nc4)CC3)cc2[nH]c1=O
GI50 [1]: 72.2 µM
TGI [1]: > 100 µM
GI50 [2]: > 100 µM
TGI [2]: > 100 µM
GI50 [3]: 52.6 µM
TGI [3]: > 100 µM
GI50 [4]: 70.5 µM
TGI [4]: > 100 µM
GI50 [5]: 29.7 µM
TGI [5]: > 100 µM
GI50 [6]: 34.5 µM
TGI [6]: > 100 µM
GI50 [7]: 29.5 µM
TGI [7]: > 100 µM
GI50 [8]: 68.5 µM
TGI [8]: > 100 µM
GI50 [9]: > 100 µM
TGI [9]: > 100 µM
GI50 [10]: 78.6 µM
TGI [10]: > 100 µM
GI50 [11]: 20.2 µM
TGI [11]: > 100 µM
GI50 [12]: 50 µM
TGI [12]: > 100 µM
GI50 [13]: 36 µM
TGI [13]: > 100 µM
GI50 [14]: 26.1 µM
TGI [14]: > 100 µM
GI50 [15]: 25.9 µM
TGI [15]: > 100 µM
GI50 [16]: 18.9 µM
TGI [16]: > 100 µM
GI50 [17]: 80.1 µM
TGI [17]: > 100 µM
GI50 [18]: 60.1 µM
TGI [18]: > 100 µM
GI50 [19]: 74.6 µM
TGI [19]: > 100 µM
GI50 [20]: > 100 µM
TGI [20]: > 100 µM
GI50 [21]: 23.9 µM
TGI [21]: > 100 µM
GI50 [22]: > 100 µM
TGI [22]: > 100 µM
GI50 [23]: 71.2 µM
TGI [23]: > 100 µM
GI50 [24]: 23.6 µM
TGI [24]: > 100 µM
GI50 [25]: 30.5 µM
TGI [25]: > 100 µM
GI50 [26]: > 100 µM
TGI [26]: > 100 µM
GI50 [27]: 3.1 µM
TGI [27]: 20.9 µM
GI50 [28]: 2.3 µM
TGI [28]: 26.1 µM
GI50 [29]: 53.1 µM
TGI [29]: > 100 µM
GI50 [30]: 87.2 µM
TGI [30]: > 100 µM
GI50 [31]: > 100 µM
TGI [31]: > 100 µM
GI50 [32]: 2.5 µM
TGI [32]: > 100 µM
GI50 [33]: 48.4 µM
TGI [33]: > 100 µM
GI50 [34]: > 100 µM
TGI [34]: > 100 µM
GI50 [35]: 43.5 µM
TGI [35]: > 100 µM
GI50 [36]: 53.9 µM
TGI [36]: > 100 µM
GI50 [37]: > 100 µM
TGI [37]: > 100 µM
GI50 [38]: 42.1 µM
TGI [38]: > 100 µM
GI50 [39]: > 100 µM
TGI [39]: > 100 µM
GI50 [40]: 3.3 µM
TGI [40]: 52.4 µM
GI50 [41]: > 100 µM
TGI [41]: > 100 µM
GI50 [42]: 93.1 µM
TGI [42]: > 100 µM
GI50 [43]: 71 µM
TGI [43]: > 100 µM
GI50 [44]: > 100 µM
TGI [44]: > 100 µM
GI50 [45]: > 100 µM
TGI [45]: > 100 µM
GI50 [46]: > 100 µM
TGI [46]: > 100 µM
GI50 [47]: > 100 µM
TGI [47]: > 100 µM
GI50 [48]: 84 µM
TGI [48]: > 100 µM
GI50 [49]: > 100 µM
TGI [49]: > 100 µM
GI50 [50]: > 100 µM
TGI [50]: > 100 µM
GI50 [51]: 0.271 µM
TGI [51]: 20.5 µM
GI50 [52]: > 100 µM
TGI [52]: > 100 µM
GI50 [53]: 22 µM
TGI [53]: > 100 µM
GI50 [54]: > 100 µM
TGI [54]: > 100 µM
GI50 [55]: > 100 µM
TGI [55]: > 100 µM
GI50 [56]: > 100 µM
TGI [56]: > 100 µM
GI50 [57]: > 100 µM
TGI [57]: > 100 µM
